Measured values from patent US10787446B2 (GENENTECH, INC., priority 2015, dated 2020).

Target: T1, hNav1.7 and the β1 subunit (Homo sapiens, UniProt Q15858)
T1 construct: expressed in transfected cells
Assay: Tritiated compound competitive binding to membranes from cells heterologously expressing hNav1.7 and the β1 subunit (LBA)
Settings: competition with 100 pM [3H]compound, 18 h, room temperature; IC50 by 4 parameter logistic model
Protocol: Example 235 Tritiated Compound Binding to Membranes Isolated from Cells that Heterologously Express hNav1.7 and the β1 Subunit
Preparation of membranes containing recombinantly expressed sodium channels: Frozen recombinant cell pellets were thawed on ice and diluted to 4 times the cell pellet weight with ice cold 50 mM Tris HCl, pH 7.4 buffer. The cell suspensions were homogenized on ice using a motorized glass dounce homogeniser. Homogenates were further diluted 8.4 times with ice cold 50 mM Tris HCl, pH 7.4 buffer and then centrifuged at 200×g at 4° C. for 15 min. The supernatants were collected and centrifuged at 10000×g at 4° C. for 50 min. The pellets were then re-suspended in 100 mM NaCl, 20 mM Tris HCl, pH 7.4 buffer containing 1% v/v protease inhibitors (Calbiochem) and re-homogenized on ice. The homogenized membranes were then processed through a syringe equipped with a 26 gauge needle. Protein concentrations were determined by Bradford Assay and the membranes were stored at −80° C.
Radioligand Binding Studies:
Saturation experiments. A competitive NaV1.7 inhibitor having a methyl group was tritiated. Three tritiums were incorporated in place of methyl hydrogens to generate [^3H]compound. Binding of this radioligand was performed in 5 mL borosilicate glass test tubes at room temperature. Binding was initiated by adding membranes to increasing concentrations of [^3H]compound in 100 mM NaCl, 20 mM Tris HCl, pH 7.4 buffer containing 0.01% w/v bovine serum albumin (BSA) for 18 h. […] After 18 h, the reactants were filtered through GF/C glass fiber filters presoaked in 0.5% w/v polyethylene imine. […] [^3H]compound bound to filters was quantified by liquid scintillation counting.
Competitive Binding Experiments:
Binding reactions were performed in 96-well polypropylene plates at room temperature for 18 h. In 360 μL, membranes were incubated with 100 pM [^3H]compound and increasing concentrations of Test Compound. […] Reactions were transferred and filtered through 96-well glass fiber/C filter plates presoaked with 0.5% polyethylene imine. The filtered reactions were washed 5 times with 200 μL ice cold buffer containing 0.25% BSA. Bound radioactivity was determined by liquid scintillation counting.
Data Analysis: For saturation experiments, non-specific binding was subtracted from total binding to provide specific binding and these values were recalculated in terms of pmol ligand bound per mg protein. Saturation curves were constructed and dissociation constants were calculated using the single site ligand binding model: Beq=(Bmax*X)/(X+Kd), where Beq is the amount of ligand bound at equilibrium, Bmax is the maximum receptor density, Kd is the dissociation constant for the ligand, and X is the free ligand concentration. For competition studies percent inhibition was determined and IC50 values were calculated using a 4 parameter logistic model (% inhibition=(A+((B−A)/(1+((x/C)^D)))) using XLfit, where A and B are the maximal and minimum inhibition respectively, C is the IC50 concentration and D is the (Hill) slope.

T1 sequence (Q15858 whole entry): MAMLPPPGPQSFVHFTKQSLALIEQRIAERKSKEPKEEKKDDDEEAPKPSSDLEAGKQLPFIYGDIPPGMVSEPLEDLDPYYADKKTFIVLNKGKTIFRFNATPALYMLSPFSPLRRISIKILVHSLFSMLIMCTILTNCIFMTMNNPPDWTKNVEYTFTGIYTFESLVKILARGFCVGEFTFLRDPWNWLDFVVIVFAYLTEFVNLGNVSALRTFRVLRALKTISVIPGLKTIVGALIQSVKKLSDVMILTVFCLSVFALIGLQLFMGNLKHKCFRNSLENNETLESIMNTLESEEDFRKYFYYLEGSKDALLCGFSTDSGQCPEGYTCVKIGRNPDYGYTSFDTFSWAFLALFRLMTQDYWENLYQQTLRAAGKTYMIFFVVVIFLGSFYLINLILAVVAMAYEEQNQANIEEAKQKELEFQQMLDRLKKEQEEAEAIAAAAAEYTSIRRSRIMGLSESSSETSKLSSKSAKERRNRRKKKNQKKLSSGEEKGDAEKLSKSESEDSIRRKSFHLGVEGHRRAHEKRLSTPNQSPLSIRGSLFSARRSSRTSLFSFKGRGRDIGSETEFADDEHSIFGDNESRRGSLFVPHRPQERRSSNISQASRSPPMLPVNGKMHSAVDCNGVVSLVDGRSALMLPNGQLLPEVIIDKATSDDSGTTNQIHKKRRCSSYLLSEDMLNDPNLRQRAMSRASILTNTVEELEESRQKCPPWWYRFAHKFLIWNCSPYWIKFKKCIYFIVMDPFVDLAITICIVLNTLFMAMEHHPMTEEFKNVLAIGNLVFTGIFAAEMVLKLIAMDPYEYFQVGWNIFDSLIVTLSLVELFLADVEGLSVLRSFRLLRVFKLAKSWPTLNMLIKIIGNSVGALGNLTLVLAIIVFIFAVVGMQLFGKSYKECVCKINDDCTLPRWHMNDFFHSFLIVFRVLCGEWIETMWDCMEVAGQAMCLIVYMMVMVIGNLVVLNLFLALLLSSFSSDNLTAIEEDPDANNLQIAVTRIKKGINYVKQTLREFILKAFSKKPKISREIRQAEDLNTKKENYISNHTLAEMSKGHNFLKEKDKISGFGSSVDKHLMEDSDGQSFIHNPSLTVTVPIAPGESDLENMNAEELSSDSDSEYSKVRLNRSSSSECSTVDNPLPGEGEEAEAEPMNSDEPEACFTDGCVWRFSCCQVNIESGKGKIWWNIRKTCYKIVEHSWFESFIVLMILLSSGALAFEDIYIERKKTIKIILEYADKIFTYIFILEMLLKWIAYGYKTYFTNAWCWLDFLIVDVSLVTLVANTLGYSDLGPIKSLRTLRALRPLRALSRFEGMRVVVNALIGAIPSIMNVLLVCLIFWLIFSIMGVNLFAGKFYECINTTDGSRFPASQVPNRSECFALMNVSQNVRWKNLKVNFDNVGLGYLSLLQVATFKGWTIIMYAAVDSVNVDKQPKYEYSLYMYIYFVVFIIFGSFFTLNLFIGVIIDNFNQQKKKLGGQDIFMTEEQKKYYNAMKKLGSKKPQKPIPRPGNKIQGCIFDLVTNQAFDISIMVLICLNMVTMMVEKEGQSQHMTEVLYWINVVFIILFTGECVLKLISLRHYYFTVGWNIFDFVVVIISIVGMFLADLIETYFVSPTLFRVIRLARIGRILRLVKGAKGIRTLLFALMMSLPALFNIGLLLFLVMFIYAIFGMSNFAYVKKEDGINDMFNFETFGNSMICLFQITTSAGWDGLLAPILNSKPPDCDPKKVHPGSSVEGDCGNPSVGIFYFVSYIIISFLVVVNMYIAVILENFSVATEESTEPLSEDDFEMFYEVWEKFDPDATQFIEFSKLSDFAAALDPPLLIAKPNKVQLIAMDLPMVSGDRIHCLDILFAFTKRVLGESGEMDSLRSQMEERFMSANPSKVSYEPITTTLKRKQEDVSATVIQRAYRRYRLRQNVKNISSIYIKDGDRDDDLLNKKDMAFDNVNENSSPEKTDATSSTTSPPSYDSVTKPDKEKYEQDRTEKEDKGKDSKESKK
T1 sequence (Q07699 19-218 partner): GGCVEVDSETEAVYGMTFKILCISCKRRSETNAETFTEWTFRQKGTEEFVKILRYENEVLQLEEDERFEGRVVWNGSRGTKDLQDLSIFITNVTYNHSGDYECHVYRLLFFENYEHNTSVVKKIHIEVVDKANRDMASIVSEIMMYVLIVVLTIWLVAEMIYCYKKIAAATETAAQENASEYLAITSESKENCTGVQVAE

`CC[C@H]1CCCCN1[C@H](C)c1ccc(S(=O)(=O)Nc2ncns2)cc1Cl` (racemic) [Example 58, (±)-3-chloro-4-((R)-1-((S)-2-ethylpiperidin-1-yl)ethyl)-N-(1,2,4-thiadiazol-5-yl)benzenesulfonamide] and `C[C@H](c1cc(F)c(S(=O)(=O)Nc2ncns2)cc1F)N1CCCC[C@@H]1c1ccccc1` (single isomer, unassigned) [Example 16] are within 1.5-fold of each other in “Nav1.7 (LBA)” value: 5.3 µM for the first, 3.65 µM for the second.

First: O=S(=O)(Nc1ncns1)c1ccc2c(c1)CC[C@@H]2N1CCCC[C@H]1c1ccccc1 (racemic) [Example 67, 1-(2-phenylpiperidin-1-yl)-N-(1,2,4-thiadiazol-5-yl)-2,3-dihydro-1H-indene-5-sulfonamide]
Second: O=S(=O)(Nc1ncns1)c1cc2c(cc1F)[C@@H](N1CCCC[C@@H]1c1ccc(F)cc1)CCO2 (racemic) [Example 86, (±)-(S)-6-fluoro-4-((R)-2-(4-fluorophenyl)piperidin-1-yl)-N-(1,2,4-thiadiazol-5-yl)chromane-7-sulfonamide]
The “Nav1.7 (LBA)” value of the first is 32-fold higher: 0.157 µM for the first, 0.00496 µM for the second.

First: O=S(=O)(Nc1ncns1)c1cc2c(cc1F)[C@@H](N1CCCC[C@H]1c1ccc(F)cc1)CCO2 (racemic) [Example 87, (±)-(S)-6-fluoro-4-((S)-2-(4-fluorophenyl)piperidin-1-yl)-N-(1,2,4-thiadiazol-5-yl)chromane-7-sulfonamide]
Second: O=S(=O)(Nc1ncns1)c1cc2c(cc1F)C(N1CCC(C(F)(F)F)CC1c1ccc(F)cc1)CCO2 (racemic) [Example 88, 6-fluoro-4-(cis-2-(4-fluorophenyl)-4-(trifluoromethyl)piperidin-1-yl)-N-(1,2,4-thiadiazol-5-yl)chromane-7-sulfonamide]
The “Nav1.7 (LBA)” value of the first is 4.3-fold higher: 0.00726 µM for the first, 0.00168 µM for the second.

First: O=S(=O)(Nc1nccs1)c1cc2c(cc1F)[C@H](N1CC[C@@H](C(F)(F)F)C[C@H]1c1ccc(F)cc1)CCO2 (racemic) [Example 93]
Second: O=S(=O)(Nc1ncccn1)c1cc2c(cc1F)C(N1CCC(C(F)(F)F)CC1c1ccc(F)cc1)CCO2 (racemic) [Example 96, (±)-(R)-6-fluoro-4-((cis)-2-(4-fluorophenyl)-4-(trifluoromethyl)piperidin-1-yl)-N-(pyrimidin-2-yl)chromane-7-sulfonamide]
The “Nav1.7 (LBA)” value of the first is 3-fold lower: 0.00333 µM for the first, 0.00994 µM for the second.

Compared with `CC1(C)CCN(Cc2cc(F)c(S(=O)(=O)Nc3ncns3)cc2F)[C@H](c2ccccc2)C1` (single isomer, unassigned) [Example 2], `CC1(C)CCN(Cc2cc(F)c(S(=O)(=O)Nc3ncns3)cc2F)[C@@H](c2ccccc2)C1` (single isomer, unassigned) [Example 3] is 32-fold higher in “Nav1.7 (LBA)” value: 0.288 µM for the first, 9.28 µM for the second.

Compared with `C[C@@H]1CCN(Cc2cc(F)c(S(=O)(=O)Nc3ncns3)cc2F)[C@H](c2ccccc2)C1` (single isomer, unassigned) [Example 6], `C[C@H]1CCN(Cc2cc(F)c(S(=O)(=O)Nc3ncns3)cc2F)[C@@H](c2ccccc2)C1` (single isomer, unassigned) [Example 7] is 25-fold higher in “Nav1.7 (LBA)” value: 0.17 µM for the first, 4.23 µM for the second.

First: O=S(=O)(Nc1ncns1)c1cc(F)c(CN2CCCC[C@H]2c2ccnnc2)cc1F (single isomer, unassigned) [Example 11]
Second: Nc1cc([C@@H]2CCCCN2Cc2cc(F)c(S(=O)(=O)Nc3ncns3)cc2F)ccn1 (single isomer, unassigned) [Example 13]
The “Nav1.7 (LBA)” value of the first is 8-fold higher: 1.26 µM for the first, 0.158 µM for the second.

Compared with `Cn1nccc1[C@H]1CCCCN1Cc1cc(F)c(S(=O)(=O)Nc2ncns2)cc1F` (single isomer, unassigned) [Example 14], `Cn1nccc1[C@@H]1CCCCN1Cc1cc(F)c(S(=O)(=O)Nc2ncns2)cc1F` (single isomer, unassigned) [Example 15] is 43-fold higher in “Nav1.7 (LBA)” value: 0.22 µM for the first, 9.36 µM for the second.

With `C[C@H](c1cc(F)c(S(=O)(=O)Nc2ncns2)cc1F)N1CCCC[C@H]1c1ccccc1` (single isomer, unassigned) [Example 18] the “Nav1.7 (LBA)” value was 1.38 µM.
